Consider 1 compound from patent US20180043011A1, “PI3-Kinase Inhibition and LAG-3 Checkpoint blockade as a Combination Therapy for Cancer” (Wisconsin Alumni Research Foundation, priority 2016, published 2018).

The test system of assay [1] is activated (CD137+) CD8+ T cells. Kind of assay: In vitro stimulation of splenocytes, surface expression of LAG-3 and PD1 by flow cytometry. In kind it is cell-based, mouse. The note with it: 200nM BEZ235; WT (CD3/28 beads) or OT1 (SIINFEKL peptide) splenocytes; 24 h. The protocol:
FIG. 1A depicts WT (top) and OT1 (bottom) splenocytes stimulated with either CD3/28 beads or SIINFEKL peptide respectively, with/without PI3K inhibition and assayed for surface expression of LAG-3 (left graphs) or PD1 (right graphs) on activated (CD137+) CD8+ T cells at 24 h. FIG. 1B depicts a representative OT1 sample showing levels of LAG-3 and PD1 on CD8+ T cells upon in vitro SIINFEKL stimulation in the presence of a PI3K inhibitor. (* denotes a p-value <0.05, two way Mann-Whitney test) FIG. 1C depicts WT splenocytes stimulated with CD3/28 beads with/without PI3K inhibition and assayed for intracellular expression of cytokines in CD8+ T cells.
Splenocytes from either OT-1 or wild type (WT) C57BL/6J mice were cultured in RPMI-1640, 10% FCS, 200U/mL Pen/Strep, 1% NaPyr, 1% HEPES, 50 μM β-MeOH and 2 μg/mL SIINFEKL peptide (OT1 cells) or CD3 and CD28 antibody coated latex beads (WT cells) with or without 200nM BEZ235 PI3-Kinase inhibitor (Selleckchem, Catalog No. S1009).
(* denotes a p-value <0.05, two way Mann-Whitney test).
On the technique in general: In flow cytometry, cells or beads pass a laser one at a time.

For assay [2], the system named is SSX2 mouse sarcoma cell line. Kind of assay: Cancer cell growth in vitro (images after three days). In kind it is cell-based. The note with it: 200 nM BEZ235; three days after plating; 100,000 cells per flask. The protocol: An SSX2 mouse sarcoma cell line (described in Rekoske et al., Cancer Immunol Res August 2015 3; 946) was split and 100,000 cells plated into each of two […] flasks. Cells were grown in RPMI-1640, 5% FCS, 200 U/mL Pen/Strep, 50 μM β-MeOH with or without 200 nM BEZ235 PI3-Kinase inhibitor. FIG. 2 left, mouse sarcoma cell line grown in normal media three days after plating; shown at […] and 10× and right, sarcoma cells from the same split plated with the same number of cells/cm^2 and grown in media containing the pan-PI3K inhibitor BEZ235.

Turning to `Cn1c(=O)n(-c2ccc(C(C)(C)C#N)cc2)c2c3cc(-c4cnc5ccccc5c4)ccc3ncc21` [BEZ235], in assay [1], the “surface expression of LAG-3 on CD8+ T cells” value is on record as “increased expression of LAG-3” and the “surface expression of PD-1 on CD8+ T cells” value was “reduced expression of PD-1”. The cell growth result in assay [2] is given as “inhibited cell growth”.
